This passage reports IC50 results from patent publication US10301280B2 (Plexxikon Inc., priority 2012, dated 2019).

SMILES strings stand for the structures.

As a reminder, the IC50 is the concentration that gives 50% inhibition.

The subject of the assay is BaF3-FL KIT D816V or BaF3-FL KIT V560G/D816V cell line. The assay can be described thus: Cell-based assays of c-Kit mutant kinase activity (cell growth, ATPlite). The note with it: at least one of the c-kit cell assays of Example 26. Summed up:
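BaF3 cells dependent on full-length human KIT (D816V or V560G/D816V) seeded at 1×10^4 cells/well in RPMI with 10% FBS. Eight-point 1:3 dilutions from 10 μM top final (0.2% DMSO), 3 days at 37° C., 5% CO2. ATPlite luminescence gave IC50.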
(In general: ATP-based viability assays read luminescence as a measure of living cells.)
`Cc1c(C(=O)Nc2cnc3[nH]c(-c4ccccc4)cc3c2)n[nH]c1C(F)(F)F` [P-2231, 4-methyl-N-(2-phenyl-1H-pyrrolo[2,3-b]pyridin-5-yl)-5-(trifluoromethyl)-1H-pyrazole-3-carboxamide] returned an IC50 below 10 µM.

In turn, `O=C(Nc1cnc2[nH]c(-c3ccccc3)cc2c1)c1n[nH]c(C(F)(F)F)c1Cl` [P-2232, 4-chloro-N-(2-phenyl-1H-pyrrolo[2,3-b]pyridin-5-yl)-5-(trifluoromethyl)-1H-pyrazole-3-carboxamide] gave an IC50 below 10 µM.

In turn, `O=C(Nc1cnc2[nH]c(-c3ccccc3)cc2c1)c1n[nH]c(Cl)c1C(F)(F)F` [P-2233, 5-chloro-N-(2-phenyl-1H-pyrrolo[2,3-b]pyridin-5-yl)-4-(trifluoromethyl)-1H-pyrazole-3-carboxamide] displayed an IC50 below 10 µM.

`Cc1c(C(=O)Nc2cnc3[nH]c(-c4ccccc4)cc3c2)n[nH]c1C(F)F` [P-2234, 5-(difluoromethyl)-4-methyl-N-(2-phenyl-1H-pyrrolo[2,3-b]pyridin-5-yl)-1H-pyrazole-3-carboxamide] returned an IC50 below 10 µM.

Compound `Cc1[nH]nc(C(=O)Nc2cnc3[nH]c(-c4ccccc4)cc3c2)c1C(F)F` [P-2235, 4-(difluoromethyl)-5-methyl-N-(2-phenyl-1H-pyrrolo[2,3-b]pyridin-5-yl)-1H-pyrazole-3-carboxamide] registered an IC50 below 10 µM.

As to `O=C(Nc1cnc2[nH]c(-c3ccccc3)cc2c1)c1n[nH]c(Cl)c1C(F)F` [P-2236, 5-chloro-4-(difluoromethyl)-N-(2-phenyl-1H-pyrrolo[2,3-b]pyridin-5-yl)-1H-pyrazole-3-carboxamide], the IC50 is below 10 µM.

`O=C(Nc1cnc2[nH]c(-c3ccccc3)cc2c1)c1n[nH]c(C(F)F)c1Cl` [P-2237, 4-chloro-5-(difluoromethyl)-N-(2-phenyl-1H-pyrrolo[2,3-b]pyridin-5-yl)-1H-pyrazole-3-carboxamide] came in with an IC50 below 10 µM.

The compound `COc1ncccc1-c1cc2cc(NC(=O)c3n[nH]c(C)c3C)cnc2[nH]1` [P-2238, N-(2-(2-methoxypyridin-3-yl)-1H-pyrrolo[2,3-b]pyridin-5-yl)-4,5-dimethyl-1H-pyrazole-3-carboxamide] gave an IC50 below 10 µM.

With `CCOc1ncccc1-c1cc2cc(NC(=O)c3n[nH]c(C)c3C)cnc2[nH]1` [P-2239, N-(2-(2-ethoxypyridin-3-yl)-1H-pyrrolo[2,3-b]pyridin-5-yl)-4,5-dimethyl-1H-pyrazole-3-carboxamide], the IC50 is below 10 µM.

For `Cc1[nH]nc(C(=O)Nc2cnc3[nH]c(-c4cccnc4OC(F)F)cc3c2)c1C` [P-2240, N-(2-(2-(difluoromethoxy)pyridin-3-yl)-1H-pyrrolo[2,3-b]pyridin-5-yl)-4,5-dimethyl-1H-pyrazole-3-carboxamide], the IC50 was below 10 µM.

Compound `Cc1[nH]nc(C(=O)Nc2cnc3[nH]c(-c4cccnc4C(F)(F)F)cc3c2)c1C` [P-2241, 4,5-dimethyl-N-(2-(2-(trifluoromethyl)pyridin-3-yl)-1H-pyrrolo[2,3-b]pyridin-5-yl)-1H-pyrazole-3-carboxamide] displayed an IC50 below 10 µM.

Compound `COc1ccc(-c2cc3cc(NC(=O)c4n[nH]c(C)c4C)cnc3[nH]2)c(OC)n1` [P-2242, N-(2-(2,6-dimethoxypyridin-3-yl)-1H-pyrrolo[2,3-b]pyridin-5-yl)-4,5-dimethyl-1H-pyrazole-3-carboxamide] returned a half-maximal inhibitory concentration (IC50) below 10 µM.

With `Cc1[nH]nc(C(=O)Nc2cnc3[nH]c(-c4cncc(C5CC5)c4)cc3c2)c1C` [P-2243, N-(2-(5-cyclopropylpyridin-3-yl)-1H-pyrrolo[2,3-b]pyridin-5-yl)-4,5-dimethyl-1H-pyrazole-3-carboxamide], the IC50 is below 10 µM.

Consider `Cc1cc(-c2cc3cc(NC(=O)c4n[nH]c(C)c4C)cnc3[nH]2)cnc1C` [P-2244, N-(2-(5,6-dimethylpyridin-3-yl)-H-pyrrolo[2,3-b]pyridin-5-yl)-4,5-dimethyl-1H-pyrazole-3-carboxamide], for which the IC50 was below 10 µM.

The compound `Cc1[nH]nc(C(=O)Nc2cnc3[nH]c(-c4ccnc(F)c4)cc3c2)c1C` [P-2245, N-(2-(2-fluoropyridin-4-yl)-1H-pyrrolo[2,3-b]pyridin-5-yl)-4,5-dimethyl-1H-pyrazole-3-carboxamide] displayed an IC50 below 10 µM.

Compound `Cc1cc(-c2cc3cc(NC(=O)c4n[nH]c(C)c4C)cnc3[nH]2)ccn1` [P-2246, 4,5-dimethyl-N-(2-(2-methylpyridin-4-yl)-1H-pyrrolo[2,3-b]pyridin-5-yl)-1H-pyrazole-3-carboxamide] yielded an IC50 below 10 µM.

Take `CCOc1cc(-c2cc3cc(NC(=O)c4n[nH]c(C)c4C)cnc3[nH]2)ccn1` [P-2247, N-(2-(2-ethoxypyridin-4-yl)-1H-pyrrolo[2,3-b]pyridin-5-yl)-4,5-dimethyl-1H-pyrazole-3-carboxamide]: the IC50 was below 10 µM.

`Cc1[nH]nc(C(=O)Nc2cnc3[nH]c(-c4ccnc(OC(C)C)c4)cc3c2)c1C` [P-2248, N-(2-(2-isopropoxypyridin-4-yl)-1H-pyrrolo[2,3-b]pyridin-5-yl)-4,5-dimethyl-1H-pyrazole-3-carboxamide] came in with an IC50 below 10 µM.

On to `COc1nccc(-c2cc3cc(NC(=O)c4n[nH]c(C)c4C)cnc3[nH]2)c1Cl` [P-2249, N-(2-(3-chloro-2-methoxypyridin-4-yl)-1H-pyrrolo[2,3-b]pyridin-5-yl)-4,5-dimethyl-1H-pyrazole-3-carboxamide], for which the IC50 is below 10 µM.

The compound `Cc1[nH]nc(C(=O)Nc2cnc3[nH]c(-c4ccncc4Cl)cc3c2)c1C` [P-2250, N-(2-(3-chloropyridin-4-yl)-1H-pyrrolo[2,3-b]pyridin-5-yl)-4,5-dimethyl-1H-pyrazole-3-carboxamide] came in with an IC50 below 10 µM.

`Cc1cnccc1-c1cc2cc(NC(=O)c3n[nH]c(C)c3C)cnc2[nH]1` [P-2251, 4,5-dimethyl-N-(2-(3-methylpyridin-4-yl)-1H-pyrrolo[2,3-b]pyridin-5-yl)-1H-pyrazole-3-carboxamide] gave an IC50 below 10 µM.

Turning to `Cc1[nH]nc(C(=O)Nc2cnc3[nH]c(-c4cncc(F)c4)cc3c2)c1C` [P-2253, N-(2-(5-fluoropyridin-3-yl)-1H-pyrrolo[2,3-b]pyridin-5-yl)-4,5-dimethyl-1H-pyrazole-3-carboxamide], the IC50 is below 10 µM.

Consider `Cc1[nH]nc(C(=O)Nc2cnc3[nH]c(-c4cncc(C(F)(F)F)c4)cc3c2)c1C` [P-2254, 4,5-dimethyl-N-(2-(5-(trifluoromethyl)pyridin-3-yl)-1H-pyrrolo[2,3-b]pyridin-5-yl)-1H-pyrazole-3-carboxamide], for which the IC50 is below 10 µM.

Turning to `Cc1[nH]nc(C(=O)Nc2cnc3[nH]c(-c4ccc(C5CC5)nc4)cc3c2)c1C` [P-2255, N-(2-(6-cyclopropylpyridin-3-yl)-1H-pyrrolo[2,3-b]pyridin-5-yl)-4,5-dimethyl-1H-pyrazole-3-carboxamide], the IC50 is below 10 µM.

In the case of `CCc1cncc(-c2cc3cc(NC(=O)c4n[nH]c(C)c4C)cnc3[nH]2)c1` [P-2256, N-(2-(5-ethylpyridin-3-yl)-1H-pyrrolo[2,3-b]pyridin-5-yl)-4,5-dimethyl-1H-pyrazole-3-carboxamide], the concentration for half-maximal inhibition (IC50) was below 10 µM.

On to `Cc1[nH]nc(C(=O)Nc2cnc3[nH]c(-c4ccccc4C(F)F)cc3c2)c1C` [P-2257, N-(2-(2-(difluoromethyl)phenyl)-1H-pyrrolo[2,3-b]pyridin-5-yl)-4,5-dimethyl-1H-pyrazole-3-carboxamide], for which the IC50 was below 10 µM.

Compound `Cc1cc(Cl)ccc1-c1cc2cc(NC(=O)c3n[nH]c(C)c3C)cnc2[nH]1` [P-2258] displayed an IC50 below 10 µM.

Compound `Cc1cc(F)ccc1-c1cc2cc(NC(=O)c3n[nH]c(C)c3C)cnc2[nH]1` [P-2259, N-(2-(4-fluoro-2-methylphenyl)-1H-pyrrolo[2,3-b]pyridin-5-yl)-4,5-dimethyl-1H-pyrazole-3-carboxamide] displayed an IC50 below 10 µM.

Turning to `Cc1[nH]nc(C(=O)Nc2cnc3[nH]c(-c4ccc(F)cc4F)cc3c2)c1C` [P-2260, N-(2-(2,4-difluorophenyl)-1H-pyrrolo[2,3-b]pyridin-5-yl)-4,5-dimethyl-1H-pyrazole-3-carboxamide], the IC50 is below 10 µM.

Take `Cc1[nH]nc(C(=O)Nc2cnc3[nH]c(-c4ccc(F)c(C#N)c4F)cc3c2)c1C` [P-2261, N-(2-(3-cyano-2,4-difluorophenyl)-1H-pyrrolo[2,3-b]pyridin-5-yl)-4,5-dimethyl-1H-pyrazole-3-carboxamide]: the IC50 is below 10 µM.

For `Cc1[nH]nc(C(=O)Nc2cnc3[nH]c(-c4ccc(F)c(C)c4C)cc3c2)c1C` [P-2262, N-(2-(4-fluoro-2,3-dimethylphenyl)-1H-pyrrolo[2,3-b]pyridin-5-yl)-4,5-dimethyl-1H-pyrazole-3-carboxamide], the IC50 is below 10 µM.

On to `Cc1[nH]nc(C(=O)Nc2cnc3[nH]c(-c4ccccc4OC(F)F)cc3c2)c1C` [P-2263, N-(2-(2-(difluoromethoxy)phenyl)-1H-pyrrolo[2,3-b]pyridin-5-yl)-4,5-dimethyl-1H-pyrazole-3-carboxamide], for which the IC50 is below 10 µM.

The compound `Cc1[nH]nc(C(=O)Nc2cnc3[nH]c(-c4cccc(F)c4OC(F)F)cc3c2)c1C` [P-2264, N-(2-(2-(difluoromethoxy)-3-fluorophenyl)-1H-pyrrolo[2,3-b]pyridin-5-yl)-4,5-dimethyl-1H-pyrazole-3-carboxamide] registered an IC50 below 10 µM.

For the compound `Cc1[nH]nc(C(=O)Nc2cnc3[nH]c(C4=CCOCC4)cc3c2)c1C` [P-2265, N-(2-(3,6-dihydro-2H-pyran-4-yl)-1H-pyrrolo[2,3-b]pyridin-5-yl)-4,5-dimethyl-1H-pyrazole-3-carboxamide], the IC50 is below 10 µM.

Regarding `Cc1[nH]nc(C(=O)Nc2cnc3[nH]c(C4=CC(C)(C)NC(C)(C)C4)cc3c2)c1C` [P-2266, 4,5-dimethyl-N-(2-(2,2,6,6-tetramethyl-1,2,3,6-tetrahydropyridin-4-yl)-1H-pyrrolo[2,3-b]pyridin-5-yl)-1H-pyrazole-3-carboxamide], the IC50 is below 10 µM.
